The record followed here is the Biogen ADME set (Fang et al. 2023).

Converted amounts (≈) assume the structure as drawn. Where only a bound is given, the exact number is not on record here.

For this data set the following is noted: for aqueous solubility: pH 6.8.

For `Fc1c(CN2CCC(c3nnc4ccccn34)CC2)cccc1OC1CC1`, the MDR1-MDCK efflux ratio was found to be 4.29; the intrinsic clearance, human liver microsomes was 15 mL/min/kg; the intrinsic clearance, rat liver microsomes worked out at 120 mL/min/kg.

What is called aqueous solubility is the dissolved amount per volume that the medium holds. With `C[C@@H](Oc1cc(-c2cnn(C3CCNCC3)c2)cnc1N)c1c(Cl)ccc(F)c1Cl`, the intrinsic clearance, human liver microsomes stood at 23.2 mL/min/kg; the intrinsic clearance, rat liver microsomes was determined as 106 mL/min/kg; the aqueous solubility turned out to be 32.5 µg/mL (≈ 72.2 µM).

`Cc1cc(C)nc(CNC(=O)CC2CCNCC2)n1`: the intrinsic clearance, human liver microsomes was at most 4.74 mL/min/kg; the intrinsic clearance, rat liver microsomes is at most 10.7 mL/min/kg; the aqueous solubility is 55.5 µg/mL (≈ 212 µM).

For `Cc1cc(C)cc(OCCN(C)C(=O)NCCS(=O)(=O)N(C)C)c1`, the MDR1-MDCK efflux ratio is 12.1; the intrinsic clearance, human liver microsomes was found to be 37.4 mL/min/kg; the intrinsic clearance, rat liver microsomes came out at 1090 mL/min/kg.

As for `CN(C)S(=O)(=O)CCCN1CCc2ccccc2CC1`, the MDR1-MDCK efflux ratio came to 0.6; the intrinsic clearance, human liver microsomes was 15.9 mL/min/kg; the intrinsic clearance, rat liver microsomes is 716 mL/min/kg.

For the molecule `O=C(Nc1ccc(CN2CCCCC2)cc1)c1ccnc2[nH]cnc12`, the MDR1-MDCK efflux ratio is 9.09; the fraction unbound, human plasma worked out at 0.586; the intrinsic clearance, human liver microsomes stood at 7.73 mL/min/kg.

`CC(C)c1nnc(NCc2cc(F)cc(F)c2)o1`: the MDR1-MDCK efflux ratio amounted to 0.786; the intrinsic clearance, human liver microsomes is at most 4.74 mL/min/kg; the intrinsic clearance, rat liver microsomes was found to be 111 mL/min/kg.

`COCCCNc1ncc(-c2cc(C)no2)c(C(C)C)n1`: the MDR1-MDCK efflux ratio stood at 0.439; the intrinsic clearance, human liver microsomes worked out at 33.4 mL/min/kg; the intrinsic clearance, rat liver microsomes was determined as 5960 mL/min/kg.

`C[C@@H]1CN(C(=O)CC(c2ccccc2)c2ccccc2)C[C@H](C)O1`: the MDR1-MDCK efflux ratio was determined as 1.31; the fraction unbound, human plasma is 0.154; the fraction unbound, rat plasma came to 0.0523; the intrinsic clearance, human liver microsomes is 36.4 mL/min/kg. In addition, the intrinsic clearance, rat liver microsomes is 1900 mL/min/kg and the aqueous solubility was 52.3 µg/mL (≈ 162 µM).

Regarding `Cc1ccc(NC(=O)c2ccn(C(C)C)n2)cc1N1C(=O)CCC1=O`, the intrinsic clearance, human liver microsomes was at most 4.74 mL/min/kg and the intrinsic clearance, rat liver microsomes is 19.2 mL/min/kg.

Turning to `COc1cc(OC)cc(C(=O)NCc2noc(-c3ccccc3)n2)c1`, the MDR1-MDCK efflux ratio worked out at 0.335; the intrinsic clearance, human liver microsomes came out at 34.9 mL/min/kg; the intrinsic clearance, rat liver microsomes was determined as 628 mL/min/kg.

For `O=C(Nc1ccccc1)c1scnc1-c1ccccc1`, the intrinsic clearance, human liver microsomes was 110 mL/min/kg and the intrinsic clearance, rat liver microsomes turned out to be 1040 mL/min/kg.

Turning to `CN(C)c1ncncc1NC(=O)c1ccc(C(F)(F)F)nc1`, the intrinsic clearance, human liver microsomes is at most 4.74 mL/min/kg and the intrinsic clearance, rat liver microsomes was at most 10.7 mL/min/kg.

In the case of `N#Cc1cc(F)ccc1Cn1ccnc1-c1ccccn1`, the intrinsic clearance, human liver microsomes came out at 20.5 mL/min/kg and the intrinsic clearance, rat liver microsomes was determined as 415 mL/min/kg.

`Cc1cc(Oc2ncccn2)ccc1NC(=O)c1c(C)oc(C)c1C`: the MDR1-MDCK efflux ratio was 0.8; the intrinsic clearance, human liver microsomes is at most 4.74 mL/min/kg; the intrinsic clearance, rat liver microsomes amounted to 122 mL/min/kg; the aqueous solubility came to 55 µg/mL (≈ 163 µM).

Consider `COCC(=O)NC1(C#Cc2ccc(NC(=O)C3CC3)nc2)CCCCC1`, for which the intrinsic clearance, human liver microsomes stood at 16.7 mL/min/kg and the intrinsic clearance, rat liver microsomes came out at 153 mL/min/kg.

On to `CCC(Nc1cnn(C)c1)c1ccc2c(c1)OCCO2` (stereo not drawn), for which the MDR1-MDCK efflux ratio came to 0.835; the intrinsic clearance, human liver microsomes came out at 11.4 mL/min/kg; the intrinsic clearance, rat liver microsomes came out at 332 mL/min/kg; the aqueous solubility was 37.7 µg/mL (≈ 138 µM).

`Cc1ccc(C)c(-n2c(S)nnc2-c2ccc(O)cc2)c1`: the MDR1-MDCK efflux ratio worked out at 31.1; the intrinsic clearance, human liver microsomes turned out to be 5.5 mL/min/kg; the intrinsic clearance, rat liver microsomes worked out at 164 mL/min/kg; the aqueous solubility came to 22.1 µg/mL (≈ 74.1 µM).

As for `CC(=O)N1CCN(c2ncc(-c3cc(C)no3)c([C@H]3CCCO3)n2)CC1`, the MDR1-MDCK efflux ratio was found to be 2.44; the intrinsic clearance, human liver microsomes is at most 4.74 mL/min/kg; the intrinsic clearance, rat liver microsomes is 22.9 mL/min/kg; the aqueous solubility stood at 68.6 µg/mL (≈ 192 µM).

Take `CN(C)c1cncc(-c2ccc(C(=O)NC(C)(C)C)cc2)n1`: the MDR1-MDCK efflux ratio stood at 0.697; the intrinsic clearance, human liver microsomes stood at 18.7 mL/min/kg; the intrinsic clearance, rat liver microsomes is 483 mL/min/kg.

Take `Cc1cccc2ncn(CCc3ncc[nH]3)c(=O)c12`: the MDR1-MDCK efflux ratio was found to be 6.44; the intrinsic clearance, human liver microsomes was at most 4.74 mL/min/kg; the intrinsic clearance, rat liver microsomes was found to be 2240 mL/min/kg.

Turning to `CN1C(=O)[C@@H](NC(=O)c2nnc(Cc3ccccc3)[nH]2)COc2ccccc21`, the intrinsic clearance, human liver microsomes is at most 4.74 mL/min/kg; the intrinsic clearance, rat liver microsomes was determined as 104 mL/min/kg; the aqueous solubility was found to be 41.5 µg/mL (≈ 110 µM).

For the molecule `COc1ccc(C)cc1S(=O)(=O)NCCC(=O)Nc1ccccc1C`, the MDR1-MDCK efflux ratio turned out to be 16.9; the intrinsic clearance, human liver microsomes was 92 mL/min/kg; the intrinsic clearance, rat liver microsomes turned out to be 2150 mL/min/kg.

As for `C=CCn1cnc2c(Cl)cc(-c3ccc(C(=O)NC4CC4)o3)cc21`, the MDR1-MDCK efflux ratio amounted to 5.09; the intrinsic clearance, human liver microsomes was 27.5 mL/min/kg; the intrinsic clearance, rat liver microsomes turned out to be 115 mL/min/kg; the aqueous solubility is 33.2 µg/mL (≈ 97 µM).

On to `COc1ccc(CNC(=O)c2sc3nc(C)cc(C)c3c2N)cc1`, for which the MDR1-MDCK efflux ratio stood at 0.386; the fraction unbound, human plasma amounted to 0.0044; the fraction unbound, rat plasma was 0.00657; the intrinsic clearance, human liver microsomes came out at 44.1 mL/min/kg. Further, the intrinsic clearance, rat liver microsomes is 558 mL/min/kg.

As for `Cc1ccc(-c2ccc(=O)n(Cc3ccncc3)n2)cc1`, the MDR1-MDCK efflux ratio was 0.617; the intrinsic clearance, human liver microsomes amounted to 41.7 mL/min/kg; the intrinsic clearance, rat liver microsomes is 2400 mL/min/kg; the aqueous solubility was found to be 42.6 µg/mL (≈ 154 µM).

For `Cc1[nH]nc2c1C1(CCCCC1)CC(=O)N2`, the MDR1-MDCK efflux ratio came to 3.36; the fraction unbound, human plasma came to 0.21; the fraction unbound, rat plasma stood at 0.193; the intrinsic clearance, human liver microsomes came to 8.44 mL/min/kg. The molecule further yielded an intrinsic clearance, rat liver microsomes of 45.6 mL/min/kg.

For `O=C(CN1CCCc2ccc(F)cc21)N1CCNC1=O`, the MDR1-MDCK efflux ratio came out at 0.896; the intrinsic clearance, human liver microsomes was at most 4.74 mL/min/kg; the intrinsic clearance, rat liver microsomes stood at 61.3 mL/min/kg; the aqueous solubility was found to be 45.1 µg/mL (≈ 163 µM).

Take `CCc1nnc(NC(=O)c2ccc3cc(OC)ccc3n2)s1`: the MDR1-MDCK efflux ratio amounted to 0.248; the intrinsic clearance, human liver microsomes amounted to 35.9 mL/min/kg; the intrinsic clearance, rat liver microsomes was determined as 105 mL/min/kg; the aqueous solubility amounted to 4.17 µg/mL (≈ 13.3 µM).

As to `CC(=O)c1c(C)c2cnc(Nc3ccc(N4CCNCC4)cn3)nc2n(C2CCCC2)c1=O`, the MDR1-MDCK efflux ratio stood at 63.1; the intrinsic clearance, human liver microsomes was 12.8 mL/min/kg; the intrinsic clearance, rat liver microsomes is 34.7 mL/min/kg; the aqueous solubility was determined as 46.2 µg/mL (≈ 103 µM).

In the case of `CS(=O)(=O)c1ccc(-c2cnc(NCc3ccco3)n3cnnc23)cc1`, the MDR1-MDCK efflux ratio was determined as 14.8; the intrinsic clearance, human liver microsomes worked out at 15.7 mL/min/kg; the intrinsic clearance, rat liver microsomes was determined as 31.2 mL/min/kg; the aqueous solubility was found to be 36.4 µg/mL (≈ 98.5 µM).

As to `CCOC(=O)CNC(=O)c1ccc(O)cc1O`, the MDR1-MDCK efflux ratio is 0.704; the intrinsic clearance, human liver microsomes stood at 34.3 mL/min/kg; the intrinsic clearance, rat liver microsomes was determined as 114 mL/min/kg; the aqueous solubility was determined as 36.2 µg/mL (≈ 151 µM).

In the case of `Cc1ccc(F)cc1CNc1cc(C(=O)N(C)C)ccn1`, the MDR1-MDCK efflux ratio came out at 1.06; the intrinsic clearance, human liver microsomes was determined as 11.1 mL/min/kg; the intrinsic clearance, rat liver microsomes worked out at 399 mL/min/kg; the aqueous solubility worked out at 47.4 µg/mL (≈ 165 µM).

Regarding `CC(C)c1cccc(CN2C(=O)N(C)C3(CCCCC3)C2=O)n1`, the MDR1-MDCK efflux ratio came to 1.13; the intrinsic clearance, human liver microsomes was found to be 826 mL/min/kg; the intrinsic clearance, rat liver microsomes was determined as 4200 mL/min/kg; the aqueous solubility turned out to be 35 µg/mL (≈ 111 µM).

As for `COc1ccc(Br)c(-c2nnc(N)o2)c1`, the MDR1-MDCK efflux ratio was 0.707; the intrinsic clearance, human liver microsomes worked out at 16.4 mL/min/kg; the intrinsic clearance, rat liver microsomes is 59.2 mL/min/kg; the aqueous solubility is 24.8 µg/mL (≈ 91.7 µM).

On to `COCC1(CNC(=O)c2ccc(-n3cccn3)cc2)CCC1`, for which the MDR1-MDCK efflux ratio is 0.596; the intrinsic clearance, human liver microsomes amounted to 18.2 mL/min/kg; the intrinsic clearance, rat liver microsomes was determined as 492 mL/min/kg.

As to `Cc1ccnc(NC(=O)CN(C)c2ncnc3sc4c(c23)CCC(C)C4)c1` (stereo not drawn), the aqueous solubility worked out at 3.88 µg/mL (≈ 10.2 µM).

Take `c1cc(CC2CCNCC2)c2cccnc2c1`: the intrinsic clearance, human liver microsomes is at most 4.74 mL/min/kg; the intrinsic clearance, rat liver microsomes was found to be 141 mL/min/kg; the aqueous solubility amounted to 52.2 µg/mL (≈ 231 µM).

Turning to `Cc1nn(CCNS(=O)(=O)N2CCCCC2)c(C)c1C`, the MDR1-MDCK efflux ratio is 1.53; the intrinsic clearance, human liver microsomes came out at 163 mL/min/kg; the intrinsic clearance, rat liver microsomes was 3200 mL/min/kg.

Regarding `Cc1cc(C)cc(C(=O)Nc2nn(C(C)(C)C)cc2C#N)c1`, the MDR1-MDCK efflux ratio is 2.1; the intrinsic clearance, human liver microsomes amounted to 11.2 mL/min/kg; the intrinsic clearance, rat liver microsomes was determined as 270 mL/min/kg; the aqueous solubility came to 38.6 µg/mL (≈ 130 µM).

Regarding `O=C(NC[C@@H]1CCN(c2ccccc2)C1)N1CCc2ccccc2C1`, the MDR1-MDCK efflux ratio is 0.706; the intrinsic clearance, human liver microsomes is 170 mL/min/kg; the intrinsic clearance, rat liver microsomes turned out to be 2160 mL/min/kg; the aqueous solubility came to 11.9 µg/mL (≈ 35.5 µM).

Turning to `CN(CCOCCOc1ccccc1-c1ccccc1)Cc1ccccc1.O=C(O)C(=O)O`, the MDR1-MDCK efflux ratio came to 1.82; the intrinsic clearance, human liver microsomes stood at 216 mL/min/kg; the intrinsic clearance, rat liver microsomes worked out at 1520 mL/min/kg; the aqueous solubility was 29 µg/mL.

Turning to `CCOC(=O)c1cccnc1-c1ccc2[nH]ccc2c1`, the MDR1-MDCK efflux ratio stood at 0.599; the intrinsic clearance, human liver microsomes amounted to 86.4 mL/min/kg; the intrinsic clearance, rat liver microsomes was determined as 695 mL/min/kg; the aqueous solubility is 36.8 µg/mL (≈ 138 µM).

In the case of `O=c1c(CO)cc2cc3c(cc2n1Cc1ccccn1)CCC3`, the MDR1-MDCK efflux ratio amounted to 1.39; the intrinsic clearance, human liver microsomes was determined as 12.6 mL/min/kg; the intrinsic clearance, rat liver microsomes came out at 1170 mL/min/kg.

In the case of `CN1C(=O)CCc2cc(NC(=O)C(C)(C)c3ccccc3F)ccc21`, the intrinsic clearance, human liver microsomes is 29.3 mL/min/kg; the intrinsic clearance, rat liver microsomes stood at 362 mL/min/kg; the aqueous solubility stood at 80.8 µg/mL (≈ 237 µM).
